What follows are compounds tested against G12C K-Ras4B (1-169) (Homo sapiens (Human), UniProt P01116, G12C) (assay: Test of compounds on whether to bind to KRASG12C (LC-MS compound binding rate)). Conditions: final compound concentration of 2 μM, 1 μM protein, 25° C. for 2 hours.
Protocol: Test compounds were prepared in the form of a 10 mM DMSO solution.
K-Ras4B (1-169) and G12C K-Ras4B (1-169) proteins were mixed and diluted with a buffer (1×TBS, 0.1 mM TCEP) to prepare individual 1 μM protein solutions. A 10 mM test compound was diluted tenfold with DMSO to make a 1 mM solution, and then diluted fivefold with DMSO to make a 200 μM solution. The 200 μM solution was further diluted fivefold to make a 40 μM solution. When the final compound concentration was 10 μM, 1 μL of a 200 μM test compound was added to 19 μL of a 1 μM protein solution. When the final compound concentration was 2 μM, 1 μL of a 40 μM test compound was added to 19 μL of a 1 μM protein solution. The mixtures were stored in an incubator at 25° C. for 2 hours, and 80 μL of a 1×TBS solution containing 0.2% formic acid was added thereto to end the reaction, followed by LC-MS measurement. LC-MS measurement was performed using Xevo G2-S Q-Tof manufactured by Waters, and reverse-phase chromatography was performed with a desalting column. A mass spectrum of positive ions was obtained by electrospray. For a mass spectrum, a spectrum of a polyvalent ion was collectively converted to a molecular weight by using OpenLynx software by the MaxEnt technique, and a compound binding rate was obtained from the ratio of a signal intensity that corresponds to the molecular weight of a protein to a signal intensity that corresponds to the molecular weight of a compound binding to the protein.
By obtaining the compound binding rate for K-Ras4B (1-169) and the compound binding rate for G12C K-Ras4B (1-169) at the same time, information of the selectivity for G12C K-Ras4B (1-169) was obtained at the same time.
The test compounds were measured at their final compound concentration of 2 μM. […] Almost no compounds of the present invention binded to K-Ras4B (1-169). The “binding rate” (%) for each of K-Ras4B (1-169) and G12C K-Ras4B (1-169) refers to the ratio of the signal intensity of binded forms to the sum of the signal intensity of non-binded forms and the signal intensity of binded forms.
With `C=CC(=O)N1CC(NC(=O)c2c(F)nc(CNc3n[nH]c4cc(Cl)c(C(C)(C)C)cc34)n2C)C1` [Example 30, N-(1-acryloylazetidin-3-yl)-2-(((5-(tert-butyl)-6-chloro-1H-indazol-3-yl)amino)methyl)-4-fluoro-1-methyl-1H-imidazole-5-carboxamide] the “binding rate for G12C K-Ras4B (1-169)” value was “C (a binding rate of 40% or more and less than 60% is rated “C,”)”. With `C=CC(=O)N1CC(NC(=O)c2c(C)nc(CNc3n[nH]c4cc(Cl)c(C(C)(C)C)cc34)n2CCCC)C1` [Example 18, N-(1-acryloylazetidin-3-yl)-1-butyl 2-(((5-(tert-butyl)-6-chloro-1H-indazol-3-yl)amino)methyl)-4-methyl-1H-imidazole-5-carboxamide] the “binding rate for G12C K-Ras4B (1-169)” value was “B (a binding rate of 60% or more and less than 80% is rated “B,”)”. With `C=CC(=O)N1CC(NC(=O)c2c(C)nc(CNc3n[nH]c4cc(Cl)c(C(C)(C)C)cc34)n2C2CC2)C1` [Example 23, N-(1-acryloylazetidin-3-yl)-2-(((5-(tert-butyl)-6-chloro-1H-indazol-3-yl)amino)methyl)-1-cyclopropyl-4-methyl-1H-imidazole-5-carboxamide] the “binding rate for G12C K-Ras4B (1-169)” value was “A (a binding rate of 80% or more is rated “A,”)”. `C=CC(=O)N1CC(NC(=O)c2c(C(F)F)nc(CNc3n[nH]c4cc(Cl)c(C(C)(C)C)cc34)n2C2CCN(CC)C2)C1` (stereo not shown) [Example 92, N-(1-acryloylazetidin-3-yl)-2-(((5-(tert-butyl)-6-chloro-1H-indazol-3-yl)amino)methyl)-4-(difluoromethyl)-1-(1-ethylpyrrolidin-3-yl)-1H-imidazole-5-carboxamide] was tested, and the “binding rate for G12C K-Ras4B (1-169)” value was “B (a binding rate of 60% or more and less than 80% is rated “B,”)”. In the case of `CC(C)n1c(CNc2n[nH]c3cc(Cl)c(C(C)(C)C)cc23)nc(C(F)F)c1C(=O)NC1CN(C(=O)/C=C/CN(C)C)C1` [Example 84, (E)-2-(((5-(tert-butyl)-6-chloro-1H-indazol-3-yl)amino)methyl)-4-(difluoromethyl)-N-(1-(4-(dimethylamino)but-2-enoyl)azetidin-3-yl)-1-isopropyl-1H-imidazole-5-carboxamide], the “binding rate for G12C K-Ras4B (1-169)” value is reported as “C (a binding rate of 40% or more and less than 60% is rated “C,”)”. With `C=CC(=O)N1CC(NC(=O)c2cnc(CNc3n[nH]c4cc(Cl)c(C(C)(C)C)nc34)n2C)C1` [Example 40, N-(1-acryloylazetidin-3-yl)-2-(((5-(tert-butyl)-6-chloro-1H-pyrazolo[4,3-b]pyridin-3-yl)amino)methyl)-1-methyl-1H-imidazole-5-carboxamide] the “binding rate for G12C K-Ras4B (1-169)” value was “A (a binding rate of 80% or more is rated “A,”)”. With `C=CC(=O)N1C[C@@H](C)[C@@H](NC(=O)c2c(C)nc(CNc3n[nH]c4cc(Cl)c(C(C)(C)C)cc34)n2C)C1` [Example 55, N-((3R,4R)-1-acryloyl-4-methylpyrrolidin-3-yl)-2-(((5-(tert-butyl)-6-chloro-1H-indazol-3-yl)amino)methyl)-1,4-dimethyl-1H-imidazole-5-carboxamide] the “binding rate for G12C K-Ras4B (1-169)” value was “A (a binding rate of 80% or more is rated “A,”)”. In the case of `C=CC(=O)N1C[C@H](NC(=O)c2c(C)nc(CNc3n[nH]c4cc(Cl)c(C(C)(C)C)cc34)n2C)[C@@H](O)C1` [Example 62, N-((3S,4S)-1-acryloyl-4-hydroxypyrrolidin-3-yl)-2-(((5-(tert-butyl)-6-chloro-1H-indazol-3-yl)amino)methyl)-1,4-dimethyl-1H-imidazole-5-carboxamide], the “binding rate for G12C K-Ras4B (1-169)” value is reported as “A (a binding rate of 80% or more is rated “A,”)”. For `C=CC(=O)N1CC(NC(=O)c2c(Cl)nc(CNc3n[nH]c4cc(Cl)c(C(C)(C)C)cc34)n2C2CCCN(CC(F)F)C2)C1` (stereo not shown) [Example 117, N-(1-acryloylazetidin-3-yl)-2-(((5-(tert-butyl)-6-chloro-1H-indazol-3-yl)amino)methyl)-4-chloro-1-(1-(2,2-difluoroethyl)piperidin-3-yl)-1H-imidazole-5-carboxamide], the “binding rate for G12C K-Ras4B (1-169)” value was “A (a binding rate of 80% or more is rated “A,”)”. For `C=CC(=O)N1CC(NC(=O)c2c(C(F)(F)F)nc(CNc3n[nH]c4cc(Cl)c(C(C)(C)C)cc34)n2C)C1` [Example 25, N-(1-acryloylazetidin-3-yl)-2-(((5-(tert-butyl)-6-chloro-1H-indazol-3-yl)amino)methyl)-1-methyl-4-(trifluoromethyl)-1H-imidazole-5-carboxamide], the “binding rate for G12C K-Ras4B (1-169)” value was “A (a binding rate of 80% or more is rated “A,”)”. In the case of `C=CC(=O)N1CC(NC(=O)c2c(C)nc(CNc3n[nH]c4cc(Cl)c(C(C)(C)C)cc34)n2CCC)C1` [Example 19, N-(1-acryloylazetidin-3-yl)-2-(((5-(tert-butyl)-6-chloro-1H-indazol-3-yl)amino)methyl)-4-methyl-1-propyl-1H-imidazole-5-carboxamide], the “binding rate for G12C K-Ras4B (1-169)” value is reported as “A (a binding rate of 80% or more is rated “A,”)”. For `C=CC(=O)N1CC(NC(=O)c2c(C(F)F)nc(CNc3n[nH]c4cc(Cl)c(C(C)(C)C)cc34)n2CC2CCCN2C(C)C)C1` (stereo not shown) [Example 95, N-(1-acryloylazetidin-3-yl)-2-(((5-(tert-butyl)-6-chloro-1H-indazol-3-yl)amino)methyl)-4-(difluoromethyl)-1-((1-isopropylpyrrolidine-2-yl)methyl)-1H-imidazole-5-carboxamide], the “binding rate for G12C K-Ras4B (1-169)” value was “A (a binding rate of 80% or more is rated “A,”)”. `C=CC(=O)N1CC(NC(=O)c2c(Cl)nc(CNc3n[nH]c4cc(Cl)c(C(C)(C)C)cc34)n2[C@H]2CCN(CC(F)F)C2)C1` [Example 115, (S)—N-(1-acryloylazetidin-3-yl)-2-(((5-(tert-butyl)-6-chloro-1H-indazol-3-yl)amino)methyl)-4-chloro-1-(1-(2,2-difluoroethyl)pyrrolidin-3-yl)-1H-imidazole-5-carboxamide] was tested, and the “binding rate for G12C K-Ras4B (1-169)” value was “A (a binding rate of 80% or more is rated “A,”)”. With `C=CC(=O)N1CC(NC(=O)c2c(C)nc(CNc3n[nH]c4cc(Cl)c(C(C)(C)C)cc34)n2CCOC)C1` [Example 14, N-(1-acryloylazetidin-3-yl)-2-(((5-(tert-butyl)-6-chloro-1H-indazol-3-yl)amino)methyl)-1-(2-methoxyethyl)-4-methyl-1H-imidazole-5-carboxamide] the “binding rate for G12C K-Ras4B (1-169)” value was “B (a binding rate of 60% or more and less than 80% is rated “B,”)”. In the case of `C=CC(=O)N1C[C@@H](O)[C@@H](NC(=O)c2c(C)nc(CNc3n[nH]c4cc(Cl)c(C(C)(C)C)cc34)n2C)C1` [Example 56, N-((3S,4R)-1-acryloyl-4-hydroxypyrrolidin-3-yl)-2-(((5-(tert-butyl)-6-chloro-1H-indazol-3-yl)amino)methyl)-1,4-dimethyl-1H-imidazole-5-carboxamide], the “binding rate for G12C K-Ras4B (1-169)” value is reported as “C (a binding rate of 40% or more and less than 60% is rated “C,”)”. For `C=CC(=O)N1C[C@@H](NC(=O)c2c(C)nc(CNc3n[nH]c4cc(Cl)c(C(C)(C)C)cc34)n2C)[C@H]1C` (relative stereo) [Example 52, N-((2R*,3R*)-1-acryloyl-2-methylazetidin-3-yl)-2-(((5-(tert-butyl)-6-chloro-1H-indazol-3-yl)amino)methyl)-1,4-dimethyl-1H-imidazole-5-carboxamide], the “binding rate for G12C K-Ras4B (1-169)” value was “B (a binding rate of 60% or more and less than 80% is rated “B,”)”. `C=CC(=O)N1C[C@@H](CC#N)[C@@H](NC(=O)c2c(C)nc(CNc3n[nH]c4cc(Cl)c(C(C)(C)C)cc34)n2C)C1` [Example 65, N-((3R,4R)-1-acryloyl-4-(cyanomethyl)pyrrolidin-3-yl)-2-(((5-(tert-butyl)-6-chloro-1H-indazol-3-yl)amino)methyl)-1,4-dimethyl-1H-imidazole-5-carboxamide] was tested, and the “binding rate for G12C K-Ras4B (1-169)” value was “B (a binding rate of 60% or more and less than 80% is rated “B,”)”. With `C=CC(=O)NC1CN(C(=O)c2c(C)nc(CNc3n[nH]c4cc(Cl)c(C(C)(C)C)cc34)n2C)C1` [Example 46, N-(1-(2-(((5-(tert-butyl)-6-chloro-1H-indazol-3-yl)amino)methyl)-1,4-dimethyl-1H-imidazole-5-carbonyl)azetidin-3-yl) acrylamide] the “binding rate for G12C K-Ras4B (1-169)” value was “B (a binding rate of 60% or more and less than 80% is rated “B,”)”. `C=CC(=O)N1CC(NC(=O)c2c(Cl)nc(CNc3n[nH]c4cc(Cl)c(C(C)(C)C)cc34)n2[C@@H]2CCN(CCOC)C2)C1` [Example 119, (R)—N-(1-acryloylazetidin-3-yl)-2-(((5-(tert-butyl)-6-chloro-1H-indazol-3-yl)amino)methyl)-4-chloro-1-(1-(2-methoxyethyl)pyrrolidin-3-yl)-1H-imidazole-5-carboxamide] was tested, and the “binding rate for G12C K-Ras4B (1-169)” value was “B (a binding rate of 60% or more and less than 80% is rated “B,”)”.
